Experiments:
[1] = test system: indoleamine-pyrrole 2,3-dioxygenase (IDO)-expressing UCMSCs; test: Priming of UCMSCs with IFN-γ, percentage of IDO-expressing UCMSCs by flow cytometry; type: cell-based, human
Procedure: UCMSCs culture as described in Item 2 of the General Experimental Materials were divided into 6 groups, namely, a control group (CG), and 5 experimental groups, i.e., experimental group 1 to 5 (EG1 to EG5), with the number of UCMSCs in each group being 5.8×10^5 cells. Next, the UCMSCs in the EG1 to EG5 were subjected to priming by treating with different concentrations of IFN-γ, i.e., 50, 100, 200, 250 and 500 U/mL of IFN-γ, respectively, for 72 hours, while the UCMSCs in the CG were not subjected to any treatment. For identification of IDO-expressing UCMSCs, the cells in each group were stained with phycoerythrin-conjugated IDO monoclonal antibody (Manufacturer: Thermo Fisher Scientific; Catalogue no.: 12-9477-42) while phycoerythrin-conjugated mouse IgG1 kappa isotype control (Manufacturer: Thermo Fisher Scientific; Catalogue no.: 12-4714-82) served as the control antibody, followed by subjecting the stained cells to flow cytometry conducted using CytoFLEX Flow Cytometer (Beckman Coulter), so as to determine the percentage of IDO-expressing UCMSCs in each group.
In brief, the UCMSCs culture as described in Item 2 of the General Experimental Materials were divided into 9 groups, namely, three control groups, i.e., control groups 1 to 3 (CG1 to CG3), and 6 experimental groups, i.e., experimental group 1-1 (EG1-1), experimental group 1-2 (EG1-2), experimental group 2-1 (EG2-1), experimental group 2-2 (EG2-2), experimental group 3-1 (EG3-1) and experimental group 3-2 (EG3-2), with the number of UCMSCs in each group being 5.8×10^5 cells. Next, the UCMSCs in the EG1-1, EG2-1, and EG3-1 were subjected to priming by treating with 250 U/mL of IFN-γ for 24 hours, 48 hours, and 72 hours, respectively, the UCMSCs in EG1-2, EG2-2, and EG3-2 were treated with 500 U/mL of IFN-γ for 24 hours, 48 hours, and 72 hours, respectively, while the UCMSCs in the CG1, CG2 and CG3 were not subjected to any treatment and were left to stand for 24 hours, 48 hours, and 72 hours, respectively. […]

[2] = test system: IDO gene in UCMSCs; test: Priming of UCMSCs with IFN-γ in combination with a supplement, IDO gene mRNA by real-time PCR; type: cell-based, human; conditions: 250 U/mL of IFN-γ in combination with the supplement, 72 hours; compared with comparative group (IFN-γ only)
Procedure: In order to determine whether addition of a supplement, which is selected from one of vitamin, steroid, cytokine, double-stranded RNA, and histone deacetylase (HDAC) inhibitor, enhanced the effect of IFN-γ in the priming of UCMSCs, the following experiments were conducted.
In brief, UCMSCs culture as described in Item 2 of the General Experimental Materials were divided into 8 groups, namely, a normal control group (NCG), a comparative group (CG) and 6 experimental groups, i.e., experimental group 1 to experimental group 6 (EG1 to EG6), with the number of UCMSCs in each group being 5.8×10^5 cells. Next, the UCMSCs in each group were subjected to priming, in which the UCMSCs in the CG were treated with 250 U/mL of IFN-γ for 72 hours, the UCMSCs in a respective one of the EG1 to EG6 were treated with 250 U/mL of IFN-γ in combination with 1 μM of retinoic acid, 1 μg/mL of dexamethasone, 10 ng/mL of TNF-α, 25 μg/mL of polyinosinic acid-polycytidylic acid, 0.5 mM of valproic acid, and 1 μM of budesonide, respectively, for 72 hours, while the UCMSCs in the NCG were not subjected to any treatment and were left to stand for 72 hours.

Row | Compound | percentage of IDO-expressing UCMSCs ([1]; 50, 100, 200, 250 and 500 U/mL of IFN-γ, 72 hours, compared with control group, concentration dependent) | percentage of IDO-expressing UCMSCs ([1]; 250 or 500 U/mL of IFN-γ for 24, 48 or 72 hours, compared with the untreated control group of the same time) | percentage of IDO-expressing UCMSCs ([1]; 250 or 500 U/mL of IFN-γ, 72 hours compared with 48 hours and 24 hours) | relative mRNA expression level of IDO gene [2]
1 | IFN-γ: cytokine used for priming of UCMSCs | higher | higher | higher | 
2 | CCCC(CCC)C(=O)O [valproic acid] |  |  |  | higher
3 | polyinosinic acid-polycytidylic acid |  |  |  | higher
4 | TNF-α |  |  |  | higher

— patent publication US20260014203A1, “USE OF COMPOSITION INCLUDING MESENCHYMAL STEM CELLS FOR ALLEVIATING MYELOFIBROSIS” (MEDICAL AND PHARMACEUTICAL INDUSTRY TECHNOLOGY AND …, priority 2022, published 2026)
